Data taken from paper PMC6515519, “Structure–Activity Relationships of the Tetrapeptide Ac-His-Arg-(pI)DPhe-Tic-NH2 at the Mouse Melanocortin Receptors: Modification at the (pI)DPhe Position Leads to mMC3R Versus mMC4R Selective Ligands” (Molecules, 2019).
“Also recorded” adds a separate entry of the source. Non-standard residues stand in square brackets, D forms with d. Residues, ends and D or L forms follow the SMILES beside them. dPhe(4-CN) = N#Cc1ccc(C[C@@H](N)C(=O)O)cc1; dPhe(4-Me) = Cc1ccc(C[C@@H](N)C(=O)O)cc1; dPhe(4-F) = N[C@H](Cc1ccc(F)cc1)C(=O)O; Tic = O=C(O)[C@@H]1Cc2ccccc2CN1

Experiments:
[1] = biological target: mouse melanocortin-3 receptor (mouse) (UniProt P33033)
[2] = biological target: mouse melanocortin-4 receptor (mouse) (UniProt P56450)
[3] = biological target: mouse melanocortin-5 receptor (mouse) (UniProt P41149)
[4] = biological target: mouse melanocortin-1 receptor (mouse) (UniProt Q01727)
mMC5R = biological target: T1, mMC5R (Mus musculus, UniProt P41149); test: β-galactosidase cAMP reporter assay, agonist pharmacology in HEK293 cells stably expressing mMC5R; assay type: cell-based; conditions: for decreased agonist potency at the mMC5R compared to KNS2-22-4: ratio of EC50 to KNS2-22-4; for EC50: β-galactosidase cAMP, HEK293, mean ± SEM, apparent EC50 for partial agonists
T1 construct: expressed in transfected cells
Protocol: (§1) Peptides were synthesized manually with microwave irradiation using standard Fmoc synthesis techniques and purified using semi-preparative reverse-phase high-pressure liquid-chromatography (RP-HPLC). […] Agonist pharmacology was measured at the mMC3R, mMC4R, and mMC5R using a colorimetric β-galactosidase assay that measures cAMP production. Agonist pharmacology was assessed at the mMC1R using the Amplified Luminescent Proximity Homogenous Assay Screen (AlphaScreen, PerkinElmer), as previously described. The MC2R is only stimulated by ACTH, and was not examined in this study. For both assays, HEK293 cells stably expressing the mMCRs were used.
(§2) The peptide ligands were assessed for pharmacological activity at the mMC3R, mMC4R, and mMC5R using a β-galactosidase assay. Briefly, HEK293 cells stably expressing the MC3R, MC4R, or MC5R were plated into a 10 cm dish and grown to 40% confluency. The HEK293 cells were transfected with 4 µg of CRE/β-galactosidase using the calcium-phosphate method, as previously described. Cells (5000 to 15,000) were plated on collagen-treated Nunclon Delta Surface 96-well plates (Thermo Fisher Scientific) and incubated at 37 °C with 5% CO2. […] Plates were stored at −80 °C for up to two weeks.
(§3) Thawed plates were assessed for protein content and assayed for β-galactosidase activity. Relative protein concentration was determined by adding 10 µL of cell lysate to 200 µL of a 1:5 dilution of Bio Rad G250 protein dye in a 96-well plate.
(§4) The EC50 and pA2 values represent the mean of duplicate replicates performed in at least three independent experiments. The EC50 and pA2 values and their associated standard errors (SEM) were determined by fitting the data to a nonlinear least-squares analysis using the PRISM program (v4.0, GraphPad Inc., San Diego, CA, USA). The ligands were assayed as TFA salt and not corrected for peptide content.

mMC3R = biological target: T2, mMC3R (Mus musculus, UniProt P33033); test: β-galactosidase cAMP reporter assay, agonist pharmacology in HEK293 cells stably expressing mMC3R; assay type: cell-based; conditions: for decreased agonist potency at the mMC3R compared to KNS2-22-4: ratio of EC50 to KNS2-22-4; for mMC3R percent maximal stimulation relative to NDP-MSH (partial agonist): relative to maximal NDP-MSH signal; for EC50: β-galactosidase cAMP, HEK293, mean ± SEM, apparent EC50 for partial agonists
T2 construct: expressed in transfected cells
Protocol: as §1, §2, §3, §4

mMC1R = biological target: T3, mMC1R (Mus musculus, UniProt Q01727); test: AlphaScreen cAMP assay, agonist pharmacology in HEK293 cells stably expressing mMC1R; assay type: cell-based; conditions: for EC50: AlphaScreen cAMP, HEK293, mean ± SEM, at least three experiments
T3 construct: expressed in transfected cells
Protocol: as §1
Peptide ligands were dissolved in DMSO at stock concentrations of 10^−2 M. To assess the pharmacological activity of the tetrapeptides at the mMC1R, HEK293 cells stably expressing the mMC1R were stimulated with the ligands using the cAMP AlphaScreen assay (PerkinElmer) according to the manufacturer’s instruction and as previously described.
Cells were dislodged with Versene (Gibco) at 37 °C, and 10,000 cells/well were plated in a 384-well plate (Optiplate) with freshly made stimulation buffer (Hank’s Balanced Salt Solution (HBSS, 1×), 0.5 mM 3-isobutyl-1-methylxanthine (IBMX), 5 mM HEPES, and 0.1% bovine serum albumin (BSA), pH = 7.4) with 0.5 μg anti-cAMP acceptor beads per well.
Plates were incubated for an additional 2 h in the dark. Post incubation, the plates were read by an EnSpire plate reader (PerkinElmer, Waltham, MA, USA).
as §4

mMC4R [5] = biological target: T4, mMC4R (Mus musculus, UniProt P56450); test: β-galactosidase cAMP reporter assay, agonist pharmacology in HEK293 cells stably expressing mMC4R; assay type: cell-based; conditions: for mMC4R percent maximal stimulation relative to NDP-MSH (partial agonist): relative to maximal NDP-MSH signal
T4 construct: expressed in transfected cells
Protocol: as §1, §2, §3, §4

MC3R = conditions: previous studies; cited from earlier work
MC4R = conditions: previous studies; cited from earlier work
mMC4R [6] = biological target: T4, mMC4R; test: β-galactosidase cAMP reporter assay, antagonist Schild analysis with NDP-MSH as agonist; assay type: cell-based
Protocol: as §1, §2, §3, §4

T2 sequence (P33033 whole entry): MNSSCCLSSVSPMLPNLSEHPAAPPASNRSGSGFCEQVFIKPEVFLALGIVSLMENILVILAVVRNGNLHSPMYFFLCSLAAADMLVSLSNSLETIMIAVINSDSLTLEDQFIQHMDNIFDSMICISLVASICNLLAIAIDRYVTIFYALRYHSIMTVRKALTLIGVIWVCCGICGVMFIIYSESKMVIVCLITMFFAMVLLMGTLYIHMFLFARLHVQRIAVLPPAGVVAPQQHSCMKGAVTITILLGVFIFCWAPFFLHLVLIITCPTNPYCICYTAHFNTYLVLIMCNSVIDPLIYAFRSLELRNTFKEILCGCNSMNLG
T4 sequence (P56450 whole entry): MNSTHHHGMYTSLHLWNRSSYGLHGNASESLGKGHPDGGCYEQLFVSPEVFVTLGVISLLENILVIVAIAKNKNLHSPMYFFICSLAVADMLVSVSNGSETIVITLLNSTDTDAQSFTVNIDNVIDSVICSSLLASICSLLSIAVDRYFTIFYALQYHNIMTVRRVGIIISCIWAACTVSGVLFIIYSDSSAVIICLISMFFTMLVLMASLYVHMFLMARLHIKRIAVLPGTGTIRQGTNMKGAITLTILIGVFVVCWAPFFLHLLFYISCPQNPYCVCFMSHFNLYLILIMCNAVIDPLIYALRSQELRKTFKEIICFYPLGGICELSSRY
T3 sequence (Q01727 whole entry): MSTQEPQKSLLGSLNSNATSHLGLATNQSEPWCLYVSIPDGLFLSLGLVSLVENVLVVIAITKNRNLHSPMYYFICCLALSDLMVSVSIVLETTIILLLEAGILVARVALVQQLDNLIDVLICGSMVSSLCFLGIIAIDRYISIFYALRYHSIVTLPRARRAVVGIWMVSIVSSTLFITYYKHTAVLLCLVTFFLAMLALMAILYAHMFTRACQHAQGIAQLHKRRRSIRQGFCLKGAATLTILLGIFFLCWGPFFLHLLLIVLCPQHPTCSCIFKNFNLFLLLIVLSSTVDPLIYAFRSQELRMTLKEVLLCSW
T1 sequence (P41149 whole entry): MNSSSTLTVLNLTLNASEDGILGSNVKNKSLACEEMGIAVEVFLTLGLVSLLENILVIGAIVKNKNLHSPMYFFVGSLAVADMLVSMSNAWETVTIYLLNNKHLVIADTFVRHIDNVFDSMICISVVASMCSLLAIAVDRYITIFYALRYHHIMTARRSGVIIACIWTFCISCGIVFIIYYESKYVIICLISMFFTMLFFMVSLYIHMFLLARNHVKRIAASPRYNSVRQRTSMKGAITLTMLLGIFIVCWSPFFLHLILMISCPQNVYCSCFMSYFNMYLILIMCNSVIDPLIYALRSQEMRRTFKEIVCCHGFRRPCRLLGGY
Sequence of mouse melanocortin-3 receptor (mouse) (P33033 whole entry): as the sequence (P33033 whole entry) above
Sequence of mouse melanocortin-4 receptor (mouse) (P56450 whole entry): as the sequence (P56450 whole entry) above
Sequence of mouse melanocortin-1 receptor (mouse) (Q01727 whole entry): as the sequence (Q01727 whole entry) above
Sequence of mouse melanocortin-5 receptor (mouse) (P41149 whole entry): as the sequence (P41149 whole entry) above

Molecule	decreased agonist potency at the mMC5R compared to KNS2-22-4 (mMC5R) [fold]	EC50 (mMC5R) [nM]	decreased agonist potency at the mMC3R compared to KNS2-22-4 (mMC3R) [fold]	EC50 (mMC3R) [nM]	EC50 (mMC1R) [nM]	EC50 (mMC4R [5]) [nM]	mMC4R percent maximal stimulation relative to NDP-MSH (partial agonist) (mMC4R [5]) [% NDP]	mMC3R percent maximal stimulation relative to NDP-MSH (partial agonist) (mMC3R) [% NDP]	also measured
NDP-MSH (peptide)									agonist EC50, β-galactosidase cAMP reporter assay in HEK293 cells stably expressing mMC3R [1]: 0.52 nM; agonist EC50, β-galactosidase cAMP reporter assay in HEK293 cells stably expressing mMC4R [2]: 0.32 nM; agonist EC50, β-galactosidase cAMP reporter assay in HEK293 cells stably expressing mMC5R [3]: 3.4 nM; agonist EC50, cAMP AlphaScreen assay in HEK293 cells stably expressing mMC1R [4]: 0.009 nM
CC(=O)N[C@@H](Cc1c[nH]cn1)C(=O)N[C@@H](CCCNC(=N)N)C(=O)N[C@H](Cc1ccccc1)C(=O)N1Cc2ccccc2C[C@H]1C(N)=O [KNS3-10, Ac-His-Arg-DPhe-Tic-NH2] (Ac-HR[dF][Tic]-NH2)	5	200	70	900	4.6 ± 0.4	3000 ± 2000		85	mMC5R agonist efficacy (mMC5R; full agonist = >90% of maximal NDP-MSH signal): not a full agonist; mMC5R percent maximal stimulation relative to NDP-MSH (partial agonist) (mMC5R; relative to maximal NDP-MSH signal): 65 % NDP; decreased agonist potency at the mMC1R compared to KNS2-22-4 (mMC1R; ratio of EC50 to KNS2-22-4): 6 fold; mMC4R agonist activity (mMC4R [5]; full agonist = >90% of maximal NDP-MSH signal, inactive = <20% at 100 µM): full agonist efficacy; also recorded: Full agonism
Ac-His-(pI)DPhe-Arg-Trp-NH2									MC3R activity (MC3R): partial agonist with antagonist activity; MC4R agonist activity (MC4R): full agonist
CC(=O)N[C@@H](Cc1c[nH]cn1)C(=O)N[C@@H](CCCNC(=N)N)C(=O)N[C@H](Cc1ccc(C#N)cc1)C(=O)N1Cc2ccccc2C[C@H]1C(N)=O [KNS2-23-8, Ac-His-Arg-(pCN)DPhe-Tic-NH2] (Ac-HR[dPhe(4-CN)][Tic]-NH2)		500 ± 100		4000	27 ± 6			75	Kb (mMC4R [6]): > 3160 nM; mMC4R antagonist activity (mMC4R [6]; Schild design, agonist NDP-MSH, in the concentrations assayed): did not result in antagonist activity

More lines, main results first:

decreased agonist potency at the mMC5R compared to KNS2-22-4 (mMC5R) [fold]	EC50 (mMC5R) [nM]	decreased agonist potency at the mMC3R compared to KNS2-22-4 (mMC3R) [fold]	EC50 (mMC3R) [nM]	EC50 (mMC1R) [nM]	EC50 (mMC4R [5]) [nM]	mMC4R percent maximal stimulation relative to NDP-MSH (partial agonist) (mMC4R [5]) [% NDP]	Molecule	mMC3R percent maximal stimulation relative to NDP-MSH (partial agonist) (mMC3R) [% NDP]	also measured
14	70 ± 40	30	450 ± 70	1.8 ± 0.7	560	70	CC(=O)N[C@@H](Cc1c[nH]cn1)C(=O)N[C@@H](CCCNC(=N)N)C(=O)N[C@H](Cc1ccc(F)cc1)C(=O)N1Cc2ccccc2C[C@H]1C(N)=O [KNS2-22-2, Ac-His-Arg-(pF)DPhe-Tic-NH2] (Ac-HR[dPhe(4-F)][Tic]-NH2)		
	17 ± 4	8	110 ± 20	1 ± 0.3	700	50	CC(=O)N[C@@H](Cc1c[nH]cn1)C(=O)N[C@@H](CCCNC(=N)N)C(=O)N[C@H](Cc1ccc(C)cc1)C(=O)N1Cc2ccccc2C[C@H]1C(N)=O [KNS2-23-7, Ac-His-Arg-(pMe)DPhe-Tic-NH2] (Ac-HR[dPhe(4-Me)][Tic]-NH2)		potency increase at the mMC1R relative to Ac-His-DPhe-Arg-Trp-NH2 (mMC1R; compared with KNS2-153): ≥ 10 fold
